Laboratory results: ChEMBL document CHEMBL5291721, “A preclinical secondary pharmacology resource illuminates target-adverse drug reaction associations of marketed drugs” (Nat Commun, 2023)

Tests used:
[1] = target: Acetylcholinesterase (Homo sapiens, UniProt P22303); format: functional
[2] = target: T1, Alpha-2A adrenergic receptor (Homo sapiens, UniProt P08913)
T1 sequence (P08913 whole entry): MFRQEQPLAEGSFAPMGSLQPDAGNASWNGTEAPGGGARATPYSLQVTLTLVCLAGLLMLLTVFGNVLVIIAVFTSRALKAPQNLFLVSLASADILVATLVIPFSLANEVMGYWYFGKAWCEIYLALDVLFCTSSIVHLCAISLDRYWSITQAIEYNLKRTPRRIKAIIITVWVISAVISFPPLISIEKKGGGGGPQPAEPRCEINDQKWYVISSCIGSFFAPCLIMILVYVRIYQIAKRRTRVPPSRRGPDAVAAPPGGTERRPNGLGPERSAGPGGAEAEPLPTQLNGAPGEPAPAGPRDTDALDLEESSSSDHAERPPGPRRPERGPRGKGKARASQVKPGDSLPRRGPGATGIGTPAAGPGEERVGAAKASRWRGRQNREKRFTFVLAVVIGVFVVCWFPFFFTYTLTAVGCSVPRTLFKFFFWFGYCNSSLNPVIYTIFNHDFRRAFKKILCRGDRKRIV

[3] = target: T2, Muscarinic acetylcholine receptor M2 (Homo sapiens, UniProt P08172)
T2 sequence (P08172 whole entry): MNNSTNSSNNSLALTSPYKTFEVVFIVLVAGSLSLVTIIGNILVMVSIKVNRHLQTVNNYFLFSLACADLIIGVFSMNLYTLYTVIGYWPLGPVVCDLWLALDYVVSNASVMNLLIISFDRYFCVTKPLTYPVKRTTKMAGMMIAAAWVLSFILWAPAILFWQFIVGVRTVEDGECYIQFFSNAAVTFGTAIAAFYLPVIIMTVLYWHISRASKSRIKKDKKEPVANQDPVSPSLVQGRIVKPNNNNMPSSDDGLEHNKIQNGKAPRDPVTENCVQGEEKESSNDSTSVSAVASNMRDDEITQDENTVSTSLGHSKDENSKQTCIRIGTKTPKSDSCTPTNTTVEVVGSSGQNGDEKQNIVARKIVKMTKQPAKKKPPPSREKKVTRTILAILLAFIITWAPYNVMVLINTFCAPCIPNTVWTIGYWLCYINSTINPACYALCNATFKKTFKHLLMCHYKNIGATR

[4] = target: D(3) dopamine receptor (Homo sapiens, UniProt P35462)
Chain of D(3) dopamine receptor (P35462 whole entry): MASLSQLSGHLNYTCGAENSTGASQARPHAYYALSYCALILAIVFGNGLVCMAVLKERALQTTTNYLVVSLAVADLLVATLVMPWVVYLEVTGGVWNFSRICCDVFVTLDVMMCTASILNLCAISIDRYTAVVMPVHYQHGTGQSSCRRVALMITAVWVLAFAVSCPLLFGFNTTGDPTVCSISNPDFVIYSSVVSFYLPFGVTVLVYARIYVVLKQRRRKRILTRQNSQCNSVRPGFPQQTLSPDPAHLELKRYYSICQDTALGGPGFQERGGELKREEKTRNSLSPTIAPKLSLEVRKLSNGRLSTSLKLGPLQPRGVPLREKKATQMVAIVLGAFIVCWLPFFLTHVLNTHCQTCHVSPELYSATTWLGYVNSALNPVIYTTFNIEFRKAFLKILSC

[5] = target: Prothrombin (Homo sapiens, UniProt P00734); format: functional
[6] = target: Histamine H3 receptor (Homo sapiens, UniProt Q9Y5N1)
[7] = target: 5-hydroxytryptamine receptor 2B (Homo sapiens, UniProt P41595); format: functional, cell-based
Chain of 5-hydroxytryptamine receptor 2B (P41595 whole entry): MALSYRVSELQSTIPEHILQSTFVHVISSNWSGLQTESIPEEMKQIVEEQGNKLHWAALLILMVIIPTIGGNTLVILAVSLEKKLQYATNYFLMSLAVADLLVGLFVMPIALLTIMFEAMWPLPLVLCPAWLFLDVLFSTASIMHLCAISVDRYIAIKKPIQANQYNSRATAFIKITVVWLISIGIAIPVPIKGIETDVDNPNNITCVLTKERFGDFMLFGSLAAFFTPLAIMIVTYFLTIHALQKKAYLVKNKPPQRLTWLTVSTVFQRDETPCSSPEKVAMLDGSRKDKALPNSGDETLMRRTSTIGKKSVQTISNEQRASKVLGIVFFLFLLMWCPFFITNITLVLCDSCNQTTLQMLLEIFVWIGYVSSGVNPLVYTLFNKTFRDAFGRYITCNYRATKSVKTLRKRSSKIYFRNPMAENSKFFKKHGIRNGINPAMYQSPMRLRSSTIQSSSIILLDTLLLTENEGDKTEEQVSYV

[8] = target: Voltage-gated inwardly rectifying potassium channel KCNH2 (Homo sapiens, UniProt Q12809); format: functional
Chain of Voltage-gated inwardly rectifying potassium channel KCNH2 (Q12809 whole entry): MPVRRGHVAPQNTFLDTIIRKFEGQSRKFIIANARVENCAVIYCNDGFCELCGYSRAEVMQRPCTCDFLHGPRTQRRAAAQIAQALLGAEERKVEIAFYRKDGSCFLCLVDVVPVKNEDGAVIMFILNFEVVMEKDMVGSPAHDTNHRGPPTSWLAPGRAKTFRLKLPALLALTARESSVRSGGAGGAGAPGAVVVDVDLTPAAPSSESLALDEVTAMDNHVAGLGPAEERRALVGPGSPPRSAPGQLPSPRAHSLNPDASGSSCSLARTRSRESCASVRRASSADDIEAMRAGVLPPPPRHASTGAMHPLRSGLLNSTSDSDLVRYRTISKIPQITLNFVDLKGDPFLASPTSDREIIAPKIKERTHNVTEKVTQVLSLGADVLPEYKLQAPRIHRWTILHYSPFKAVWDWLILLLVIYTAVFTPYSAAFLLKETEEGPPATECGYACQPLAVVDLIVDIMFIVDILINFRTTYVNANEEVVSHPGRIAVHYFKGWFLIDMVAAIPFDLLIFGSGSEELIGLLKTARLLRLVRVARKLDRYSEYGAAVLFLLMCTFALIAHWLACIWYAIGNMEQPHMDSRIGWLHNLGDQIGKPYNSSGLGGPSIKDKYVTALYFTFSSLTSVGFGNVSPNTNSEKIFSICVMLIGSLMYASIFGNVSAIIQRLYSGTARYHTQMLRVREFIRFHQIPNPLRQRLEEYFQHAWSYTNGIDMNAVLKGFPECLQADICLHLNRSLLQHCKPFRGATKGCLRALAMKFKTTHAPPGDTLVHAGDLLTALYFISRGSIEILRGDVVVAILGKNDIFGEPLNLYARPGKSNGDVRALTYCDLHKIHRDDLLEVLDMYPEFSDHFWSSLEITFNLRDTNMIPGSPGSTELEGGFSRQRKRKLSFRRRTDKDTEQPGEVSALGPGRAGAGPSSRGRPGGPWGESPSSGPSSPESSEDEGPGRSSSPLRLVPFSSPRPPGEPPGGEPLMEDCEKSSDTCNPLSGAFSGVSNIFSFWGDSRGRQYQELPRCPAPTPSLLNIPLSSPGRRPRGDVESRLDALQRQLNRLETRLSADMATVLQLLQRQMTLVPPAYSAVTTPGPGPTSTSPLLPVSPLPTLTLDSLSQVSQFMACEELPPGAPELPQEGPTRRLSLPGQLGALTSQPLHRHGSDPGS

[9] = target: T3, Amine oxidase [flavin-containing] A (Homo sapiens, UniProt P21397); format: functional
T3 sequence (P21397 whole entry): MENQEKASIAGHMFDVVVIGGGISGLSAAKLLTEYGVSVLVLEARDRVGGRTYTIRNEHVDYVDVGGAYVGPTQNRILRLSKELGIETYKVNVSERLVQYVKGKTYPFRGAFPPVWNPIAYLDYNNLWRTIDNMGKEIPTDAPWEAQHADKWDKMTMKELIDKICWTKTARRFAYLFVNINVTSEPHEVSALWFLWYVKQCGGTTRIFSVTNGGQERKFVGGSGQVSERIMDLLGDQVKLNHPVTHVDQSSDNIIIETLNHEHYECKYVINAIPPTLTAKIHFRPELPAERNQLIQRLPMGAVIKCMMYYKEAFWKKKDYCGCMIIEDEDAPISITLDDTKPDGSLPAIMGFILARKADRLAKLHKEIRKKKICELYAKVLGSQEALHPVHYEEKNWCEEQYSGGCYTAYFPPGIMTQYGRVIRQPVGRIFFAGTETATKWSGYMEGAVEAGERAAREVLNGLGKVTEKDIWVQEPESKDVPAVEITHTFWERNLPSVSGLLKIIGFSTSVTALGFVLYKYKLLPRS

[10] = target: 3',5'-cyclic-AMP phosphodiesterase 4A (Homo sapiens, UniProt P27815); format: functional
Chain of 3',5'-cyclic-AMP phosphodiesterase 4A (P27815 whole entry): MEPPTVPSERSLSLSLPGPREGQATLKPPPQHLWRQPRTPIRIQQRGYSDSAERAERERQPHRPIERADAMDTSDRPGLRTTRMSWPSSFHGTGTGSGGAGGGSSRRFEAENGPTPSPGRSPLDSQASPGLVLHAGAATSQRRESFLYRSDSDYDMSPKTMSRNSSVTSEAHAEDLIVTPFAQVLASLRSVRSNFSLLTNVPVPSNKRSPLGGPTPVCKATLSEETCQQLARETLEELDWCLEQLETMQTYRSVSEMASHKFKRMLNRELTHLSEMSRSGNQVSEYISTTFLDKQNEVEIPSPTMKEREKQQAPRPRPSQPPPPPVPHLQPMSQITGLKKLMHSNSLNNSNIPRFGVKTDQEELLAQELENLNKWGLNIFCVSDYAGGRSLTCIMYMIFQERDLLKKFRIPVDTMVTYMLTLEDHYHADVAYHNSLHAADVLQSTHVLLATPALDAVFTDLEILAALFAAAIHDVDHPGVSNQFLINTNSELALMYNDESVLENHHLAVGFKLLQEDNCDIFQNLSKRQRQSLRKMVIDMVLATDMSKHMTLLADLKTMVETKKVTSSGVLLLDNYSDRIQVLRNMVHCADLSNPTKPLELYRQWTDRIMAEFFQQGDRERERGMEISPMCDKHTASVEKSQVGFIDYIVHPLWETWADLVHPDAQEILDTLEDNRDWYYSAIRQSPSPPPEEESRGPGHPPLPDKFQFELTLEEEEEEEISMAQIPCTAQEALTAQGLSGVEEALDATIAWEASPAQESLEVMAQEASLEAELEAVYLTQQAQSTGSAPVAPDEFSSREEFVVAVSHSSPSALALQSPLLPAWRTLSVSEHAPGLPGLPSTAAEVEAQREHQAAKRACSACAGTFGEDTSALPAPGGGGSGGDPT

[11] = target: T4, Prostaglandin G/H synthase 1 (Homo sapiens, UniProt P23219); format: functional
T4 sequence (P23219 whole entry): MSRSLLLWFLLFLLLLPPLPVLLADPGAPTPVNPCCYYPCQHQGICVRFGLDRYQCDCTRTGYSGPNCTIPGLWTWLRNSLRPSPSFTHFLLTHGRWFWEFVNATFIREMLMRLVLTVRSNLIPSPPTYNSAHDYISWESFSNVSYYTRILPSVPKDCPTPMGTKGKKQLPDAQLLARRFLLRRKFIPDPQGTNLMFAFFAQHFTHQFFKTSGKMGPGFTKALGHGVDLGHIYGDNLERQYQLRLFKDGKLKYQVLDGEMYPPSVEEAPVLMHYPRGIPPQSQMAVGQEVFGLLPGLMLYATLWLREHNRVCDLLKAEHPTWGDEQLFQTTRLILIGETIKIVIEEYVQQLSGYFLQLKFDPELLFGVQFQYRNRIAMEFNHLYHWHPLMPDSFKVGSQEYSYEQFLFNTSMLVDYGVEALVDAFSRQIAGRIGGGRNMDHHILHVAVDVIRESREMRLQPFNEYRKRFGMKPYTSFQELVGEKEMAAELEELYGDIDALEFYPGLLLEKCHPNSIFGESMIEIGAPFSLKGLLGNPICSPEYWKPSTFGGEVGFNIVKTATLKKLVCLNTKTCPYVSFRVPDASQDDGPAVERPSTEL

[12] = target: T4, Prostaglandin G/H synthase 1; format: functional; remark: listed apart in the source
[13] = target: Sodium-dependent dopamine transporter (Homo sapiens, UniProt Q01959)
Chain of Sodium-dependent dopamine transporter (Q01959 whole entry): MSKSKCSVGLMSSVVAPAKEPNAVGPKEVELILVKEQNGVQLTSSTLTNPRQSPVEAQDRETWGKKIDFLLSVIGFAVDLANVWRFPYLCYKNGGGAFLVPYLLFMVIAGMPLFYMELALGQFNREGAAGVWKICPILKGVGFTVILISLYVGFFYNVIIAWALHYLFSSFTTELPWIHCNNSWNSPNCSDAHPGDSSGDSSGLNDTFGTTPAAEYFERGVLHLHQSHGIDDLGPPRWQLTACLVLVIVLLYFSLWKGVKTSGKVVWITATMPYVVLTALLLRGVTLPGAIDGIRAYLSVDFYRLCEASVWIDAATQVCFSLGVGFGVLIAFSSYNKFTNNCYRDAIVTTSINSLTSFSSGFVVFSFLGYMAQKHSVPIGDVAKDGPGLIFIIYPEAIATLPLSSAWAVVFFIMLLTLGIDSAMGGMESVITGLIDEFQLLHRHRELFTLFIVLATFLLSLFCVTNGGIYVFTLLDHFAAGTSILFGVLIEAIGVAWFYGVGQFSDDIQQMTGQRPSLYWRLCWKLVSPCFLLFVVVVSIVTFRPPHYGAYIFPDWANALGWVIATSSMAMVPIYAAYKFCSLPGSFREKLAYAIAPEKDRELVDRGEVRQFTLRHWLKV

[14] = target: T5, Thromboxane A2 receptor (Homo sapiens, UniProt P21731); format: functional, cell-based
T5 sequence (P21731 whole entry): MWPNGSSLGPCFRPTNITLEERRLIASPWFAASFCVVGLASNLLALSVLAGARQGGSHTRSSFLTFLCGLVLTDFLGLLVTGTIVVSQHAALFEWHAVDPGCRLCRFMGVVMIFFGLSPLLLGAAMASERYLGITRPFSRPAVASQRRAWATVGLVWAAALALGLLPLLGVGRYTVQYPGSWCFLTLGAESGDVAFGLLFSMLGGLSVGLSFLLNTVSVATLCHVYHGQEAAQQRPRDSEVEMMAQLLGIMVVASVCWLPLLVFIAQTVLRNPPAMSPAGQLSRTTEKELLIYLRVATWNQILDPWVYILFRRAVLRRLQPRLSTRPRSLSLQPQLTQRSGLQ

[15] = target: T5, Thromboxane A2 receptor; format: functional, cell-based; remark: listed apart in the source
Further: assay procedure not described here.

Chain of Acetylcholinesterase (P22303 whole entry): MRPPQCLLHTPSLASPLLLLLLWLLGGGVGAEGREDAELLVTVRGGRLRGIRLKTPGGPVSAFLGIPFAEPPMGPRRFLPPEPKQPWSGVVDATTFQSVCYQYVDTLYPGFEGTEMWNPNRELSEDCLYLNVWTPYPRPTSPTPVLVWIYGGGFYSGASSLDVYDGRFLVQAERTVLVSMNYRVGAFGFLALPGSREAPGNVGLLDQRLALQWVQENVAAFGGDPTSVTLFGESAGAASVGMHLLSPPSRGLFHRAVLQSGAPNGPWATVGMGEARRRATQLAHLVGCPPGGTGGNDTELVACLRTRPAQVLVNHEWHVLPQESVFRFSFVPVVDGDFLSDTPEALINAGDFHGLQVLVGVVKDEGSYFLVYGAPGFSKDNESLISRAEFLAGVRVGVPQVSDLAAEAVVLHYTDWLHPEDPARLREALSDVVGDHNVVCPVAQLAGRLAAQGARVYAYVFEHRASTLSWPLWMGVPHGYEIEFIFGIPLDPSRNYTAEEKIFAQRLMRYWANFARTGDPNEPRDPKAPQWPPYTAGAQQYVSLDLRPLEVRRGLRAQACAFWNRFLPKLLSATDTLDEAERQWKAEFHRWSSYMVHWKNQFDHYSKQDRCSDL

| Structure (SMILES) | AC50 [1] [µM] | AC50 [2] [µM] | AC50 [3] [µM] | AC50 [4] [µM] | AC50 [5] [µM] | AC50 [6] [µM] | AC50 [7] [µM] | AC50 [8] [µM] | AC50 [9] [µM] | AC50 [10] [µM] | AC50 [11] [µM] | AC50 [12] [µM] | AC50 [13] [µM] | AC50 [14] [µM] | AC50 [15] [µM] |
| --- | --- | --- | --- | --- | --- | --- | --- | --- | --- | --- | --- | --- | --- | --- | --- |
| C[C@]1(Cn2ccnn2)[C@H](C(=O)O)N2C(=O)C[C@H]2S1(=O)=O [TAZOBACTAM] | > 30 | > 30 | > 30 | > 30 | > 30 | > 30 | > 30 | > 30 | > 30 | > 30 | > 30 | > 30 | > 30 | > 30 | > 30 |
| FC(F)(F)c1ccc(CNc2ccc(Cc3c[nH]c4ncc(Cl)cc34)cn2)cn1 [PEXIDARTINIB] | > 30 | 17.1 | 0.496 | 10.2 | > 30 | > 30 | > 30 | 8.6 | > 30 | > 30 | > 30 | > 30 | 9.3 | > 30 | 8.61 |
| [H]/N=C(\N/C(=N/[H])Nc1ccc(Cl)cc1)NC(C)C [PROGUANIL] | > 30 | 11.9 | > 30 | > 30 | > 30 | > 30 | > 30 | 19 | > 30 | > 30 | > 30 | > 30 | 12.5 | > 30 | > 30 |
| C[C@H]1O[C@@H](n2cc(F)c(=O)[nH]c2=O)[C@H](O)[C@@H]1O [DOXIFLURIDINE] | > 30 | > 30 | > 30 | > 30 | > 30 | > 30 | > 30 | > 30 | > 30 | > 30 | > 30 | > 30 | > 30 | > 30 | > 30 |
| CC(=O)O[C@]1(C(C)=O)CC[C@H]2[C@@H]3C=C(C)C4=CC(=O)CC[C@@H]4[C@H]3CC[C@@]21C [NOMEGESTROL ACETATE] | > 30 | > 30 | > 30 | > 30 | > 30 | > 30 | > 30 | > 30 | > 30 | > 30 | > 30 | > 30 | > 30 | > 30 | > 10 |
| CCn1cc(C(=O)O)c(=O)c2cc3c(cc21)OCO3 [OXOLINIC ACID] | > 30 | > 30 | > 30 | > 30 | > 30 | > 30 | > 30 | > 30 | > 30 | > 30 | > 30 | > 30 | > 30 | > 30 | > 30 |
| CN(CC1(C)CCCO1)S(=O)(=O)c1ccc(Cl)c(S(N)(=O)=O)c1 (stereo not given) [MEFRUSIDE] | > 30 | > 30 | > 30 | > 30 | > 30 | > 30 | > 30 | > 30 | > 30 | > 30 | > 30 | > 30 | > 30 | > 30 | > 30 |
| C#C[C@]1(O)CC[C@H]2[C@@H]3CCC4=CC(=O)CC[C@@H]4[C@H]3C(=C)C[C@@]21CC [ETONOGESTREL] | > 30 | > 30 | > 30 | > 30 | > 30 | > 30 | > 30 | > 30 | > 30 | > 30 | > 30 | > 30 | > 30 | > 30 | > 30 |
| O=C1/C(=C2\Nc3ccc(S(=O)(=O)O)cc3C2=O)Nc2ccc(S(=O)(=O)O)cc21 [INDIGOTINDISULFONATE] | > 30 | > 30 | > 30 | > 30 | 2.83 | > 30 | > 30 | > 30 | > 30 | > 30 | > 30 | 21.5 | > 30 | > 30 | > 30 |
| CC[C@H](c1ccc(O)cc1)[C@@H](CC)c1ccc(O)cc1 [HEXESTROL] | > 30 | > 30 | 18.7 | 17.5 | > 30 | > 30 | > 30 | > 30 | > 30 | > 30 | 16.4 | > 30 | 3.31 | 21 | > 3 |
| C/C=C/C/C=C/CCC(=O)[C@H]1O[C@H]1C(N)=O [CERULENIN] | > 30 | > 30 | > 30 | > 30 | > 30 | > 30 | > 30 | > 30 | > 30 | > 30 | 15.5 | > 30 | > 30 | > 30 | > 30 |
| Nc1ccc(C(=O)Oc2ccccc2)c(O)c1 [PHENYL AMINOSALICYLATE] | > 30 | > 30 | > 30 | > 30 | > 30 | > 30 | > 30 | > 30 | > 30 | 14.5 | > 30 | > 30 | 0.235 | > 30 | 17.2 |
| COc1c2ccoc2cc2oc(=O)ccc12 [BERGAPTEN] | > 30 | > 30 | > 30 | > 30 | > 30 | > 30 | > 30 | > 30 | > 10 | > 30 | > 30 | > 30 | > 30 | > 30 | > 30 |
| N[C@@H](CO)C(=O)O [SERINE] | > 30 | > 30 | > 30 | > 30 | > 30 | > 30 | > 30 | > 30 | > 10 | > 30 | > 30 | > 30 | > 30 | > 30 | > 30 |
